{"source": "paper PMC11157767", "about": "(Molecular Cancer, 2024)", "key": {"[1]": {"assay": "In vitro protein binding assay, culture media", "type": "in vitro ADME", "conditions": "read-out: unbound drug fraction, Culture Media, AVG"}, "TRIM24-MET-i cells": {"test_system": "TRIM24-MET-i cells", "assay": "3-day dose-response assay, TRIM24-MET-i cells", "type": "cell-based", "conditions": "Homo sapiens"}, "TRIM24-MET-r cells": {"test_system": "TRIM24-MET-r cells", "assay": "3-day dose-response assay, TRIM24-MET-r cells", "type": "cell-based", "conditions": "Homo sapiens"}, "TRIM24-MET-i PDOX": {"test_system": "TRIM24-MET-i PDOX", "conditions": "vs vehicle", "procedure": "All treatments started 18 days after transplantation. Radiotherapy was administered at 0.5 Gy per day, delivering 10 Gy total.\nEach line represents one mouse. The ends of lines indicate the onset of neurological symptoms and thereby the endpoints. Treatment started on day 13."}, "in vitro [2]": {"assay": "in vitro", "conditions": "mouse, plasma"}, "in vitro [3]": {"assay": "in vitro", "conditions": "mouse, brain homogenate"}}, "note": "pEC50: −log10 of the molar value. Read-outs that look alike come from different tables or passages of the source."}
{"smiles": "COc1cc2nccc(Oc3ccc(NC(=O)C4(C(=O)Nc5ccc(F)cc5)CC4)cc3)c2cc1OC", "note": "[Cabozantinib]", "values": [{"measurement": "fraction unbound", "setting": "[1]", "result": 0.033}, {"measurement": "pEC50", "setting": "TRIM24-MET-i cells; 72 h, read-out: EC50 Total", "result": 7.52}, {"measurement": "EC90", "setting": "TRIM24-MET-i cells; 72 h, read-out: EC90 Total", "result": 0.556, "unit": "µM"}, {"measurement": "pEC50", "setting": "TRIM24-MET-i cells; read-out: EC50 Unbound", "result": 9.00}, {"measurement": "EC90", "setting": "TRIM24-MET-i cells; read-out: EC90 Unbound", "result": 0.0183, "unit": "µM"}, {"measurement": "pEC50", "setting": "TRIM24-MET-r cells; 72 h, read-out: EC50 Total", "result": 6.43}, {"measurement": "EC90", "setting": "TRIM24-MET-r cells; 72 h, read-out: EC90 Total", "result": 44.9, "unit": "µM"}, {"measurement": "pEC50", "setting": "TRIM24-MET-r cells; read-out: EC50 Unbound", "result": 7.91}, {"measurement": "EC90", "setting": "TRIM24-MET-r cells; read-out: EC90 Unbound", "result": 1.48, "unit": "µM"}, {"measurement": "increase of median survival", "setting": "TRIM24-MET-i PDOX", "result": 15.5, "unit": "days"}, {"measurement": "fraction unbound", "setting": "in vitro [2]", "result": 0.0017}, {"measurement": "fraction unbound", "setting": "in vitro [3]", "result": 0.0025}]}
